Experimental data as given in patent US20200178542A9, “CONTROL OF PESTS IN COTTON BY G[…] BILOBALIDES” (priority 2015, published 2020).
Where two headings read alike, the source gives them in different places.

Experiments:
Euschistus heros = assay: Spray of cotton seedlings, infestation with adults of Euschistus heros, alive insects and Abbott relative efficacy (Example-2, Example-3); format: in vivo; settings: for Relative Efficacy 1DAI / Relative Efficacy 3DAI: Abbott's formula; for No of alive insects 1DAI / No of alive insects 3DAI: ten adults per plant, mean of 4 replicates
Method: Relative efficacy (E) values were calculated according to Abbot's formula
C is the number of alive insects in untreated controls, and G is the number of alive insects in plants treated with components of the ginkgo tree.
Fibermax™ LibertyLink™ cotton, and Bollgard II™ cotton seedlings were sprayed with 2 ml of compositions comprising either no component of the ginkgo tree, or bilobalide at a concentration of 150 ppm, or 100 ppm. Plants were allowed to dry and subsequently infested with ten adults of Euschistus heros. Four replicate measurement on different plants were made for each measurement. One day after infestation (1 DAI), and three days after infestation (3 DAI) the number of live and dead insects was determined. The mean number of alive insects, as well as the relative efficacy values (E) according to Abbott's formula were gathered in Table E, wherein the number of alive insects in untreated controls (C) was the value of the same plant without the application of bilobalide.
The experiment as described in Example-2 was repeated with ginkgolide A in a concentration of 250 ppm. […] The mean number of alive insects, as well as the relative efficacy values (E) according to Abbott's formula were gathered in Table F, wherein the number of alive insects in untreated controls (C) was the value of the same plant without the application of ginkgolide A.

Nezara viridula = assay: Foliar spray of cotton plants, infestation with Nezara viridula, mortality after three days (Example-1); format: in vivo; settings: for mortality at 100 ppm: Nezara viridula, foliar, 72 h
Method: Cotton plants were grown to growth stage BBCH 12. The cotton plants were then sprayed with 300 l/ha of aqueous compositions comprising either no component of the ginkgo tree, 300 ppm of ginkgolide A, or 100 ppm of bilobalide. The plants were then infested with five insects (either adult, or 4th instar nymphs) of Nezara viridula insects. Insects were contained on the plant using mesh organza bags. Three replicate measurement on different plants were made for each measurement. Three days after infestation, the number of live and dead insects was determined. The mean mortality values were gathered in Table D.

[1] = Fibermax LibertyLink cotton, 100 ppm
[2] = Fibermax LibertyLink cotton, 150 ppm
[3] = Fibermax LibertyLink cotton, 250 ppm

CC(C)(C)[C@]1(O)C[C@@H]2OC(=O)C[C@@]23C(=O)O[C@@H]2OC(=O)[C@H](O)[C@]213 [Bilobalide, (3aS,5aR,8aS,9R,10aR)-9-tert-butyl-8,9-dihydroxydihydro-9H-furo[2,3-b]furo[3′,2′; 2,3]cyclopenta[1,2-c]furan-2,4,7(3H,8H)-trione]
Relative Efficacy 1DAI (Euschistus heros; Bollgard II cotton, 100 ppm): 78%
No of alive insects 1DAI (Euschistus heros; Bollgard II cotton, 100 ppm): 2.3
Relative Efficacy 3DAI (Euschistus heros; Bollgard II cotton, 100 ppm): 98%
No of alive insects 3DAI (Euschistus heros; Bollgard II cotton, 100 ppm): 0.3
Relative Efficacy 1DAI (Euschistus heros; Bollgard II cotton, 150 ppm): 75%
No of alive insects 1DAI (Euschistus heros; Bollgard II cotton, 150 ppm): 2.5
Relative Efficacy 3DAI (Euschistus heros; Bollgard II cotton, 150 ppm): 100%
No of alive insects 3DAI (Euschistus heros; Bollgard II cotton, 150 ppm): 0.0
Relative Efficacy 1DAI (Euschistus heros; [1]): 68%
No of alive insects 1DAI (Euschistus heros; [1]): 3.3
Relative Efficacy 3DAI (Euschistus heros; [1]): 98%
No of alive insects 3DAI (Euschistus heros; [1]): 0.3
Relative Efficacy 1DAI (Euschistus heros; [2]): 70%
No of alive insects 1DAI (Euschistus heros; [2]): 3.0
Relative Efficacy 3DAI (Euschistus heros; [2]): 100%
No of alive insects 3DAI (Euschistus heros; [2]): 0.0
mortality at 100 ppm (Nezara viridula; read-out: Mortality of 4th instar nymphs): 92.9%
mortality at 100 ppm (Nezara viridula; read-out: Mortality of Adults): 53.3%

C[C@@H]1C(=O)O[C@H]2C[C@@]34[C@H]5C[C@@H](C(C)(C)C)[C@]36[C@@H](OC(=O)[C@@H]6O)O[C@@]4(C(=O)O5)[C@]21O [Ginkgolide A]
Relative Efficacy 1DAI (Euschistus heros; Bollgard II cotton, 250 ppm): 5%
No of alive insects 1DAI (Euschistus heros; Bollgard II cotton, 250 ppm): 9.5
Relative Efficacy 3DAI (Euschistus heros; Bollgard II cotton, 250 ppm): 33%
No of alive insects 3DAI (Euschistus heros; Bollgard II cotton, 250 ppm): 6.8
Relative Efficacy 1DAI (Euschistus heros; [3]): 0%
No of alive insects 1DAI (Euschistus heros; [3]): 10.0
Relative Efficacy 3DAI (Euschistus heros; [3]): 5%
No of alive insects 3DAI (Euschistus heros; [3]): 9.5
Mortality of 4th instar nymphs (Nezara viridula; N. viridula 4th instar nymphs on cotton (BBCH 12), 300 ppm, 300 l/ha spray, three days after infestation, mean of 3 replicates): 78.6%
Mortality of Adults (Nezara viridula; N. viridula adults on cotton (BBCH 12), 300 ppm, 300 l/ha spray, three days after infestation, mean of 3 replicates): 93.3%
